Test results as given in PubChem BioAssay AID602214 (Southern Research Specialized Biocontainment Screening …, 2012).
Active and inactive are the calls of the source.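 How the source made its calls: active means inhibition of 30% or more at any tested concentration; inactive means the rest.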

target: Cytosol aminopeptidase (Homo sapiens) (UniProt P28838); experiment: human M17LAP inhibitors, dose response, counter-screen for PfM17LAP inhibitor project, biochemical, QFRET fluorogenic substrate (AID 602214); conditions: purified recombinant human M17LAP, H-Leu-NHMec fluorescence
Sequence (P28838 whole entry, looked up): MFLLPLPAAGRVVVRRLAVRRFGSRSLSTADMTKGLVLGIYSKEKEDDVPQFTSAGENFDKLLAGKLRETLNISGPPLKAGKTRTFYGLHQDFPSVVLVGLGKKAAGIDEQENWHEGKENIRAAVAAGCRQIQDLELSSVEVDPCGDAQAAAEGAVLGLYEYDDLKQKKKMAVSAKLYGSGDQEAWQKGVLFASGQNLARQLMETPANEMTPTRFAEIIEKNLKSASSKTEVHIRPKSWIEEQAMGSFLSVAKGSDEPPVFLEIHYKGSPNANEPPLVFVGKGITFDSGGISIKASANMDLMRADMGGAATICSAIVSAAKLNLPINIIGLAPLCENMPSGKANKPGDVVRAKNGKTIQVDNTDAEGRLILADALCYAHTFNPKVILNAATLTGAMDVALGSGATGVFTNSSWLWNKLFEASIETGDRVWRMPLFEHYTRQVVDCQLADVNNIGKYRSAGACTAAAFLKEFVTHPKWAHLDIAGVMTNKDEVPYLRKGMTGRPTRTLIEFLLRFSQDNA

Compound	IC50 [nM]
CCCCc1ccc(CC(=O)NO)cc1	350
Cc1ccc(CC(=O)NO)cc1	1820
CCCCOc1ccc(C(=O)NO)cc1	8670
COc1ccc(CCCC(=O)NO)cc1	4580
O=C(Cc1ccc(OCc2ccccc2)cc1)NO	1180
O=C(Cc1ccc2ccccc2c1)NO	290
COC(=O)c1c(NC(=O)C2CC=CCC2C(=O)O)sc(C)c1-c1ccc(C)cc1 (centres undefined)	85700
O=C(Cc1ccc2c(c1)CCCC2)NO	280
CCOc1ccc(CC(=O)NO)cc1	1110
CC(C)COc1ccc(CC(=O)NO)cc1	210
COc1ccc(CC(=O)NO)cc1	1640
O=C(Cc1cccc2ccccc12)NO	990
O=C(NO)c1cccc2ccccc12	31900
O=C(Cc1ccc(Oc2ccccc2)cc1)NO	520
CCCCCCCCCC(=O)NO	8230
CCCCOc1ccc(CCC(=O)NO)cc1	16200
COc1ccc(OCCC(=O)NO)cc1	44200
CCCCOc1ccc(CC(=O)NO)cc1	310

same assay, conditions: purified recombinant human M17LAP, H-Leu-NHMec fluorescence; at 25 µM (top of the series)

Compound	inhibition
CCCCOc1ccc(CNc2c(N(C)O)c(=O)c2=O)cc1	inactive

same assay, conditions: purified recombinant human M17LAP, H-Leu-NHMec fluorescence; at 50 µM (top of the series)

Compound	inhibition
O=C(CSc1nccc(=O)[nH]1)Nc1ccc(Oc2ccccc2)cc1	inactive
COC(=O)c1ccccc1NC(=O)c1cc2cc3ccc(C)cc3nc2s1	inactive
O=C1OCCC1Sc1nnc(NC2CCCCC2)s1 (centres undefined)	inactive
CCCCOc1ccc(CC(=O)N(C)O)cc1	inactive
COC(=O)c1ccccc1NC(=O)c1ccc2c(Cl)c3c(nc2c1)CCC3	inactive

same assay, conditions: purified recombinant human M17LAP, H-Leu-NHMec fluorescence; at 100 µM (top of the series)

Compound	inhibition
NC(N)=NCCC[C@H](N)C(=O)NO	inactive
COC(=O)Cc1ccc(OCC(C)C)cc1	inactive
COC(=O)c1c(NC(=O)C2CCCCC2C(=O)O)sc2c1CCC(c1ccccc1)C2 (centres undefined)	inactive
CC(C)C[C@H](N)C(=O)NO	inactive
Cc1ccc(NC(=O)CSc2nc(O)cc(=O)n2Cc2ccccc2)cc1	inactive
O=C(CSc1nc(O)cc(=O)[nH]1)Nc1ccccc1	inactive
COc1ccc(-c2nnc(NC(=O)C3CC(C)=C(C)CC3C(=O)O)s2)cc1 (centres undefined)	inactive
Cc1cc(=O)[nH]c(SCC(=O)Nc2ccccc2)n1	inactive
CCn1c2ccccc2c2cc(NC(=O)CSc3nc(C)cc(=O)[nH]3)ccc21	inactive
O=C(CSc1nccc(=O)[nH]1)Nc1ccc(N2CCOCC2)cc1	inactive
O=C(O)c1ccccc1C(=O)Nc1nc2c(s1)CCCC2	inactive
CCC(C)Oc1ccc(CC(=O)OC)cc1 (centres undefined)	inactive
CCCOc1ccc(CC(=O)OC)cc1	inactive
COC(=O)c1c(NC(=O)c2ccccc2C(=O)O)sc2c1CCCC2	inactive
CC1=C(C)CC(C(=O)Nc2nc(-c3cc(C)ccc3C)c(C)s2)C(C(=O)O)C1 (centres undefined)	inactive
O=C(Nc1ccc(Cl)cc1)Nc1ccccc1C(=O)O	inactive
CC1CCc2sc(C(=O)Nc3cccc4c3C(=O)NC4)cc2C1 (centres undefined)	inactive
CCCCOc1ccc(CNc2c(N(O)Cc3ccccc3)c(=O)c2=O)cc1	inactive
CCCCOc1ccc(CC(=O)O)cc1	inactive
O=C(CSc1ccccc1)Nc1cccc2c1C(=O)NC2=O	inactive
COc1cc(NC(=O)CSc2ccccc2)c(C(=O)O)cc1OC	inactive
COC(=O)c1cc(OC)c(OC)cc1NC(=O)c1sc2nc(C)ccc2c1N	inactive
N[C@@H](Cc1c[nH]c2ccccc12)C(=O)NO	inactive
CC(C)(C(=O)NO)c1ccccc1	inactive
COC(=O)Cc1ccc(OCCN(C)C)cc1	inactive
CN(O)C(=O)Cc1ccc(OCc2ccccc2)cc1	inactive
CC1=C(C)CC(C(=O)Nc2ccc(Oc3ccc(Cl)cc3)cc2)C(C(=O)O)C1 (centres undefined)	inactive
CCC(C)(C)C1CCc2c(sc(NC(=O)C3CC(C)=C(C)CC3C(=O)O)c2C(=O)OC)C1 (centres undefined)	inactive
COc1cc(NC(=O)c2ccc(-c3ccccc3)cc2)c(C(=O)O)cc1OC	inactive
Cc1cc(SCC(=O)Nc2ccccc2C(=O)O)nc2ccccc12	inactive
